Values quoted from earlier work as cited in patent publication US20070196528A1, “Cosmetic composition based on caper flower bud extract” (GATTEFOSSE S.A.S., priority 2004, published 2007).

Test system: oedemas in rats
Conditions: Pharmazie 43 (1988); cited from earlier work

Molecule	Anti-inflammatory activity
CC(C)=CCC/C(C)=C/CC/C(C)=C/CC/C(C)=C/CC/C(C)=C\CC/C(C)=C\CC/C(C)=C\CC/C(C)=C\CC/C(C)=C\CC/C(C)=C\CC/C(C)=C\CC/C(C)=C\CC/C(C)=C\CO [Cappaprenol-13]	providing this anti-inflammatory activity
CC(C)=CCC/C(C)=C/CC/C(C)=C/CC/C(C)=C/CC/C(C)=C/CC/C(C)=C/CC/C(C)=C/CC/C(C)=C/CC/C(C)=C/CC/C(C)=C/CC/C(C)=C/CC/C(C)=C/CC/C(C)=C/CC/C(C)=C/CO [Cappaprenol-14]	providing this anti-inflammatory activity
Cappaprenol-12	providing this anti-inflammatory activity
